Assays:
corn = test: Test B pre/postemergence corn; type: in vivo, Zea mays
How it was run: (§1)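 Response is a visual 0-to-10 score relative to untreated plants, where 0 means no effect and 10 means complete control, taken twelve to sixteen days after application. Treatments went onto soil at planting and onto foliage of 1- to 4-leaf plants, using a surfactant-containing non-phytotoxic solvent.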

wheat = test: Test B pre/postemergence wheat; type: in vivo, Triticum aestivum
How it was run: as §1

soybean = test: Test B pre/postemergence soybean; type: in vivo, Glycine max
How it was run: as §1

wild oat = test: Test B pre/postemergence wild oat; type: in vivo, Avena fatua
How it was run: as §1

rape = test: Test B pre/postemergence rape; type: in vivo, Brassica napus
How it was run: as §1

purple nutsedge = test: Test B pre/postemergence purple nutsedge; type: in vivo, Cyperus rotundus
How it was run: as §1

rice = test: Test B flood test rice; type: in vivo, Oryza sativa
How it was run: (§2)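 Each value is a visual injury score relative to controls, with 10 meaning complete control and 0 no effect. Evaluation took place twelve to sixteen days after the 2-leaf-stage plants were treated and kept in the greenhouse.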

bedstraw = test: Test B pre/postemergence bedstraw; type: in vivo, Galium aparine
How it was run: as §1

crabgrass = test: Test B pre/postemergence crabgrass; type: in vivo, Digitaria sanguinalis
How it was run: as §1

duck salad = test: Test B flood test duck salad; type: in vivo, Heteranthera limosa
How it was run: as §2

pigweed = test: Test B pre/postemergence pigweed; type: in vivo, Amaranthus retroflexus
How it was run: as §1

sugar beet = test: Test B pre/postemergence sugar beet; type: in vivo, Beta vulgaris
How it was run: as §1

bamyardgrass = test: Test B flood test barnyardgrass; type: in vivo, Echinochloa crus-galli
How it was run: as §2

velvetleaf = test: Test B pre/postemergence velvetleaf; type: in vivo, Abutilon theophrasti
How it was run: as §1

cocklebur = test: Test B pre/postemergence cocklebur; type: in vivo, Xanthium strumarium
How it was run: as §1

giant foxtail = test: Test B pre/postemergence giant foxtail; type: in vivo, Setaria faberii
How it was run: as §1

morningglory = test: Test B pre/postemergence morningglory; type: in vivo, Ipomoea hederacea
How it was run: as §1

smallflower flatsedge = test: Test B flood test smallflower flatsedge; type: in vivo, Cyperus difformis
How it was run: as §2

surinam grass = test: Test B pre/postemergence surinam grass; type: in vivo, Brachiaria decumbens
How it was run: as §1

blackgrass = test: Test B pre/postemergence blackgrass; type: in vivo, Alopecurus myosuroides
How it was run: as §1

[1] = Postemergence, Rate 125 g/ha, scale 0 to 10, 0 is no effect, 10 is complete control
[2] = Postemergence, Rate 250 g/ha, scale 0 to 10
[3] = Postemergence, Rate 500 g/ha, scale 0 to 10, 0 is no effect, 10 is complete control
[4] = Preemergence, Rate 62 g/ha, scale of 0 to 10 where 0 is no effect and 10 is complete control
[5] = Preemergence, Rate 125 g/ha, scale 0 to 10, 0 is no effect, 10 is complete control
[6] = Preemergence, Rate 500 g/ha, scale of 0 to 10 where 0 is no effect and 10 is complete control
[7] = Rate 62 g/ha, Postemergence, scale 0 to 10 (0 no effect, 10 complete control)
[8] = Rate 62 g/ha, flood test species, Pre-emergence, visual evaluation after twelve to sixteen days
[9] = Rate 125 g/ha, under heading Pre-emergence, flood test species, visual evaluation after twelve to sixteen days
[10] = Rate 250 g/ha, Pre-emergence (flood test species), scale 0 to 10, 0 is no effect, 10 is complete control
[11] = Rate 500 g/ha, Pre-emergence section of Table B, 0 to 10 scale (0 no effect, 10 complete control)
[12] = Preemergence, Rate 250 g/ha, scale 0 to 10, 0 is no effect, 10 is complete control
[13] = Preemergence, Rate 500 g/ha, scale 0 to 10, 0 is no effect, 10 is complete control

CC(C)N(C(=O)n1oc(=O)n(CC2=NCCCO2)c1=O)c1ccccc1 [Compound 494]
Corn plant response rating (corn; [1]): 0 | Corn plant response rating (corn; [2]): 0 | Plant response rating, Corn (corn; [3]): 0 | Plant response rating, Corn (corn; [4]): 0 | Corn plant response rating (corn; [5]): 0 | Corn plant response rating (corn; [6]): 0 | Corn plant response rating (corn; [7]): 0 | Wheat plant response rating (wheat; [1]): 0 | Plant response rating, Wheat (wheat; [3]): 0 | Plant response rating, Wheat (wheat; [4]): 0 | Wheat plant response rating (wheat; [5]): 0 | Wheat plant response rating (wheat; [6]): 0 | Wheat plant response rating (wheat; [7]): 0 | Soybean plant response rating (soybean; [1]): 0 | Plant response rating, Soybean (soybean; [3]): 1 | Plant response rating, Soybean (soybean; [4]): 0 | Soybean plant response rating (soybean; [5]): 1 | Soybean plant response rating (soybean; [6]): 1 | Soybean plant response rating (soybean; [7]): 0 | Wild oats plant response rating (wild oat; [1]): 0 | Plant response rating, Wild oats (wild oat; [3]): 0 | Plant response rating, Wild oats (wild oat; [4]): 0 | Wild oats plant response rating (wild oat; [5]): 0 | Wild oats plant response rating (wild oat; [6]): 0 | Wild oats plant response rating (wild oat; [7]): 0 | Rape plant response rating (rape; [1]): 0 | Plant response rating, Rape (rape; [3]): 0 | Plant response rating, Rape (rape; [4]): 0 | Rape plant response rating (rape; [5]): 0 | Rape plant response rating (rape; [6]): 0 | Rape plant response rating (rape; [7]): 0 | Nutsedge plant response rating (purple nutsedge; [1]): 0 | Plant response rating, Nutsedge (purple nutsedge; [3]): 0 | Plant response rating, Nutsedge (purple nutsedge; [4]): 0 | Nutsedge plant response rating (purple nutsedge; [5]): 0 | Nutsedge plant response rating (purple nutsedge; [6]): 0 | Nutsedge plant response rating (purple nutsedge; [7]): 0 | Plant response rating, Rice (0 to 10 scale, 0 is no effect, 10 is complete control) (rice; [8]): 0 | Rice plant response rating (0 to 10 scale, 0 is no effect, 10 is complete control) (rice; [9]): 0 | Rice plant response rating (rice; [10]): 0 | Rice plant response rating (rice; [11]): 0 | Plant response rating, Bedstraw (bedstraw; [4]): 0 | Bedstraw plant response rating (bedstraw; [5]): 0 | Bedstraw plant response rating (bedstraw; [12]): 0 | Bedstraw plant response rating (bedstraw; [13]): 0 | Bedstraw plant response rating (bedstraw; [7]): 0 | Crabgrass plant response rating (crabgrass; [1]): 0 | Plant response rating, Crabgrass (crabgrass; [4]): 0 | Crabgrass plant response rating (crabgrass; [5]): 0 | Crabgrass plant response rating (crabgrass; [6]): 0 | Crabgrass plant response rating (crabgrass; [7]): 0 | Plant response rating, Ducksalad (0 to 10 scale, 0 is no effect, 10 is complete control) (duck salad; [8]): 0 | Ducksalad plant response rating (0 to 10 scale, 0 is no effect, 10 is complete control) (duck salad; [9]): 0 | Ducksalad plant response rating (duck salad; [10]): 0 | Ducksalad plant response rating (duck salad; [11]): 0 | Redroot pigweed plant response rating (pigweed; [1]): 0 | Plant response rating, Redroot pigweed (pigweed; [3]): 0 | Plant response rating, Redroot pigweed (pigweed; [4]): 0 | Redroot pigweed plant response rating (pigweed; [5]): 0 | Redroot pigweed plant response rating (pigweed; [6]): 0 | Redroot pigweed plant response rating (pigweed; [7]): 0 | Sugarbeets plant response rating (sugar beet; [1]): 0 | Plant response rating, Sugarbeets (sugar beet; [3]): 0 | Plant response rating, Sugarbeets (sugar beet; [4]): 0 | Sugarbeets plant response rating (sugar beet; [5]): 0 | Sugarbeets plant response rating (sugar beet; [6]): 0 | Sugarbeets plant response rating (sugar beet; [7]): 0 | Plant response rating, Barnyardgrass (0 to 10 scale, 0 is no effect, 10 is complete control) (bamyardgrass; [8]): 0 | Barnyardgrass plant response rating (0 to 10 scale, 0 is no effect, 10 is complete control) (bamyardgrass; [9]): 0 | Barnyardgrass plant response rating (bamyardgrass; [10]): 0 | Barnyardgrass plant response rating (bamyardgrass; [11]): 0 | Velvetleaf plant response rating (velvetleaf; [1]): 0 | Plant response rating, Velvetleaf (velvetleaf; [3]): 0 | Plant response rating, Velvetleaf (velvetleaf; [4]): 0 | Velvetleaf plant response rating (velvetleaf; [5]): 0 | Velvetleaf plant response rating (velvetleaf; [6]): 0 | Velvetleaf plant response rating (velvetleaf; [7]): 0 | Cocklebur plant response rating (cocklebur; [1]): 0 | Cocklebur plant response rating (cocklebur; [2]): 0 | Plant response rating, Cocklebur (cocklebur; [3]): 0 | Plant response rating, Cocklebur (cocklebur; [4]): 0 | Cocklebur plant response rating (cocklebur; [5]): 0 | Cocklebur plant response rating (cocklebur; [12]): 0 | Cocklebur plant response rating (cocklebur; [6]): 0 | Cocklebur plant response rating (cocklebur; [7]): 0 | Giant foxtail plant response rating (giant foxtail; [1]): 0 | Plant response rating, Giant foxtail (giant foxtail; [3]): 0 | Plant response rating, Giant foxtail (giant foxtail; [4]): 0 | Giant foxtail plant response rating (giant foxtail; [5]): 0 | Giant foxtail plant response rating (giant foxtail; [6]): 0 | Giant foxtail plant response rating (giant foxtail; [7]): 0 | Morningglory plant response rating (morningglory; [1]): 0 | Plant response rating, Morningglory (morningglory; [3]): 0 | Plant response rating, Morningglory (morningglory; [4]): 0 | Morningglory plant response rating (morningglory; [5]): 0 | Morningglory plant response rating (morningglory; [6]): 0 | Morningglory plant response rating (morningglory; [7]): 0 | Plant response rating, S. Flatsedge (0 to 10 scale, 0 is no effect, 10 is complete control) (smallflower flatsedge; [8]): 0 | S. Flatsedge plant response rating (0 to 10 scale, 0 is no effect, 10 is complete control) (smallflower flatsedge; [9]): 0 | S. Flatsedge plant response rating (smallflower flatsedge; [10]): 0 | S. Flatsedge plant response rating (smallflower flatsedge; [11]): 0 | B. signalgrass plant response rating (surinam grass; [1]): 0 | B. signalgrass plant response rating (surinam grass; Postemergence, Rate 250 g/ha, scale 0 to 10, 0 no effect, 10 complete control): 0 | Plant response rating, B. signalgrass (surinam grass; [3]): 0 | Plant response rating, B. signalgrass (surinam grass; [4]): 0 | B. signalgrass plant response rating (surinam grass; [5]): 0 | B. signalgrass plant response rating (surinam grass; [12]): 0 | B. signalgrass plant response rating (surinam grass; [13]): 0 | B. signalgrass plant response rating (surinam grass; [7]): 0 | Blackgrass plant response rating (blackgrass; [1]): 0 | Blackgrass plant response rating (blackgrass; [2]): 0 | Plant response rating, Blackgrass (blackgrass; [3]): 0 | Plant response rating, Blackgrass (blackgrass; [4]): 0 | Blackgrass plant response rating (blackgrass; [5]): 0 | Blackgrass plant response rating (blackgrass; [12]): 0 | Blackgrass plant response rating (blackgrass; [6]): 0 | Blackgrass plant response rating (blackgrass; [7]): 0

— patent publication US6737383B1, “Herbicidal oxadiazolidines” (priority 1999, dated 2004)
